Experimental data as given in patent US9598401B2, “Substituted heteroaryl compounds and methods of use thereof” (Sunshine Lake Pharma Co., Ltd., priority 2013, dated 2017).
Where two headings read alike, the source gives them in different places.

Key:
dopamine D2S receptor = dopamine D2S receptor (Homo sapiens (Human), UniProt P14416); test: Affinity for human dopamine D2S receptor ([3H]methyl-spiperone binding); conditions: 0.3 nM [3H]methyl-spiperone, cell membrane homogenates, 22° C., 60 minutes
Description: Cell membrane homogenates (24 μg protein) were incubated at 22° C. for 60 minutes with 0.3 nM [3H]methyl-spiperone in the absence or presence of the test compound in a buffer solution containing 50 mM Tris-HCl (pH 7.4), 120 mM NaCl, 5 mM KCl, 5 mM MgCl2 and 1 mM EDTA.
The non-specific binding value was determined by incubating the same mixture in the presence of 10 μM (+)butaclamol.
Following the incubation, the samples were filtered rapidly under vacuum through glass fiber filter (GF/B, Packard) presoaked with 0.3% PEI and rinsed several times with ice-cold 50 mM Tris-HCl using a 96-sample cell harvester (Unifilter, Packard). The filters were dried and the retained radioactivity was measured in a scintillation counter (Topcount, Packard) using a scintillation cocktail (Microscint 0, Packard).
The experimental results were expressed as a percent inhibition of the control radioligand specific binding, and Ki was the inhibition constant. The standard reference compound was (+)butaclamol, which was tested in each experiment at several concentrations to obtain a competition curve from which its IC50 was calculated, and then Ki value was calculated by ChengPrusoff equation.

5-HT1A receptor = 5-HT1A receptor (Homo sapiens (Human), UniProt P08908); test: Affinity for human 5-HT1A receptor ([3H]8-OH-DPAT binding, HEK-293 cell homogenates);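 note: Filter-retained radioactivity counted by scintillation, non-specific binding defined with 10 µM 8-OH-DPAT, Ki derived from percent inhibition of specific radioligand binding versus control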
Description: The non-specific binding value was determined by incubating the same mixture in the presence of 10 μM 8-OH-DPAT, which was used as the standard reference compound and tested in each experiment at several concentrations to obtain a competition curve.
Following the incubation, the samples were filtered rapidly under vacuum through glass fiber filter (GF/B, Packard) presoaked with 0.3% PEI and rinsed several times with ice-cold 50 mM Tris-HCl using a 96-sample cell harvester (Unifilter, Packard). The filters were dried and the retained radioactivity was measured in a scintillation counter (Topcount, Packard) using a scintillation cocktail (Microscint 0, Packard). The experimental results were expressed as a percent inhibition of the control radioligand specific binding, and Ki was the inhibition constant.

serotonin transporter = serotonin transporter (Rattus norvegicus (Rat), UniProt P31652); test: Inhibitory effect on [3H]5-HT uptake in rat synaptosome; format: biochemical; conditions: rat brain synaptosomes, 37° C., 15 minutes, 0.1 μCi [3H]5-HT
Description: The synaptosomes (150 μg) prepared from the rat brain were incubated at 37° C. for 15 minutes with 0.1 μCi [^3H]5-HT in the absence or presence of the test compound or the reference compound in a buffer solution containing 106.2 mM NaCl, 4.5 mM KCl, 2.25 mM MgSO4, 1.08 mM NaH2PO4, 22.5 mM NaHCO3, 9.9 mM glucose, 9 μM EGTA and 45 μM ascorbic acid (pH 7.4).
Inhibition of serotonin transporter in rat synaptosome was measured by the concentrations of [^3H]5-HT.

[1] = read-out: Ki, binding affinity for 5-HT1A receptor, 0.3 nM [3H]8-OH-DPAT, human HEK-293 cell homogenates, 22° C., 60 minutes

Sequence of serotonin transporter (P31652 whole entry): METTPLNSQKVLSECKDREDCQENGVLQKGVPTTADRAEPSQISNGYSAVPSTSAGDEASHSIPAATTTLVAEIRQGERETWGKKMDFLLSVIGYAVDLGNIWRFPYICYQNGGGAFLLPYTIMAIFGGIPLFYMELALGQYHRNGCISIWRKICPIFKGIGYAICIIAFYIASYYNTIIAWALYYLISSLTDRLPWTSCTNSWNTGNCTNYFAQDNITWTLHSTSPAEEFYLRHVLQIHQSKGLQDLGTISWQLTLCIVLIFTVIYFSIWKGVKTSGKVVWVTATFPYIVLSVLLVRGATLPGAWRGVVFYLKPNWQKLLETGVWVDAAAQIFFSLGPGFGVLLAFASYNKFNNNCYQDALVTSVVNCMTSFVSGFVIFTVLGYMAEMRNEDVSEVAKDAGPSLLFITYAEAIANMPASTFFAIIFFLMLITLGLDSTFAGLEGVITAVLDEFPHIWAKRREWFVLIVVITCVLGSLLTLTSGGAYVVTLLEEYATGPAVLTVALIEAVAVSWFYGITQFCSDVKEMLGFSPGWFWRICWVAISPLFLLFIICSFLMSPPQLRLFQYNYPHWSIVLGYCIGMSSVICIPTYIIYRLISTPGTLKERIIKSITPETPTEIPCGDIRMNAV
Sequence of dopamine D2S receptor (P14416 other isoform, or with tags, fused parts or gaps): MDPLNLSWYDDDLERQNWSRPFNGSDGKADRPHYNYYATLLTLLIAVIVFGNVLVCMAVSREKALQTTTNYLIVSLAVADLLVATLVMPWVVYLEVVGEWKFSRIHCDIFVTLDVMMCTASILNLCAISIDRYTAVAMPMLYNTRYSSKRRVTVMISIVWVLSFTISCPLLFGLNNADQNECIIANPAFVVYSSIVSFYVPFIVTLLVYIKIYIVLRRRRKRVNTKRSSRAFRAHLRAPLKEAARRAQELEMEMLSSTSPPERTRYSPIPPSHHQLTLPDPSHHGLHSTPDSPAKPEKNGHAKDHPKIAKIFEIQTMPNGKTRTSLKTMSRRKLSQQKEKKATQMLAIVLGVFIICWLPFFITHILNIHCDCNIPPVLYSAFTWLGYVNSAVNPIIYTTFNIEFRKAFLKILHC
Sequence of 5-HT1A receptor (P08908 whole entry): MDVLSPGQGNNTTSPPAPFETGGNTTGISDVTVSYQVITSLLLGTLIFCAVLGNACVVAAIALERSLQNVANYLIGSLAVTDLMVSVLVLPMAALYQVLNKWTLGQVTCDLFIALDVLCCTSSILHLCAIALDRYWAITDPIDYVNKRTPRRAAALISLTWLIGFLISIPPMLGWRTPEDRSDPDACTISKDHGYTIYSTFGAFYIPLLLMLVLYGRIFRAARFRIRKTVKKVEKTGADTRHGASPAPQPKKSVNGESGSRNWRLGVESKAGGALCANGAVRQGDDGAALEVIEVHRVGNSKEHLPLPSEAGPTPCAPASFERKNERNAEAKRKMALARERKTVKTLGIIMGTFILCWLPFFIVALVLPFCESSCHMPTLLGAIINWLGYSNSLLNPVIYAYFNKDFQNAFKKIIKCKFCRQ

Compound | Ki (dopamine D2S receptor) [nM] | Ki (5-HT1A receptor; [1]) [nM] | IC50 (serotonin transporter) [nM] | Ki (5-HT1A receptor) [nM]
N#Cc1ccc2[nH]cc(CCCCN3CCN(c4nccc(C(N)=O)n4)CC3)c2c1 [Example 28, 2-(4-(4-(5-Cyano-1H-indol-3-yl)butyl)piperazin-1-yl)pyrimidine-4-carboxamide] | 310 | 10 | 1 | 
CCOC(=O)c1sc(N2CCN(CCCc3c[nH]c4ccc(C#N)cc34)CC2)nc1C [Example 40, Ethyl 2-(4-(3-(5-cyano-1H-indol-3-yl)propyl)piperazin-1-yl)-4-methylthiazole-5-carboxylate] | > 1000 | 0.3 | 3.5 | 
NC(=O)c1ccnc(N2CCN(CCCCc3c[nH]c4ccc(F)cc34)CC2)n1 [Example 27, 2-(4-(4-(5-Fluoro-1H-indol-3-yl)butyl)piperazin-1-yl)pyrimidine-4-carboxamide] | > 1000 | 60 | 2.7 | 
Cc1nc(N2CCN(CCCCc3c[nH]c4ccc(F)cc34)CC2)sc1C(N)=O [Example 41, 2-(4-(4-(5-Fluoro-1H-indol-3-yl)butyl)piperazin-1-yl)-4-methylthiazole-5-carboxamide] | 140 | 23 | 2.4 | 
CCOC(=O)c1sc(N2CCN(CCCCc3c[nH]c4ccc(F)cc34)CC2)nc1C [Example 37, Ethyl 2-(4-(4-(5-fluoro-1H-indol-3-yl)butyl)piperazin-1-yl)-4-methylthiazole-5-carboxylate] | 130 | 5.5 | 7 | 
Cc1nc(N2CCN(CCCc3c[nH]c4ccc(C#N)cc34)CC2)sc1C(N)=O [Example 44, 2-(4-(3-(5-Cyano-1H-indol-3-yl)propyl)piperazin-1-yl)-4-methylthiazole-5-carboxamide] | > 1000 | 3.7 | 4.3 | 
Cc1cc(C)nc(N2CCN(CCCc3c[nH]c4ccccc34)CC2)n1 [Example 16, 3-(3-(4-(4,6-Dimethylpyrimidin-2-yl)piperazin-1-yl)propyl)-1H-indole] | 110 | 4.1 | 53 | 
Cc1nc(N2CCN(CCCc3c[nH]c4ccc(F)cc34)CC2)sc1C(N)=O [Example 42, 2-(4-(3-(5-Fluoro-1H-indol-3-yl)propyl)piperazin-1-yl)-4-methylthiazole-5-carboxamide] | 310 | 4.5 | 5.3 | 
COc1cc(OC)nc(N2CCN(CCCc3c[nH]c4ccc(C#N)cc34)CC2)n1 [Example 10, 3-(3-(4-(4,6-Dimethoxypyrimidin-2-yl)piperazin-1-yl)propyl)-1H-indole-5-carbonitrile] | 200 | 1.3 | 3.6 | 
COc1cc(OC)nc(N2CCN(CCCCc3c[nH]c4ccc(F)cc34)CC2)n1 [Example 4, 3-(4-(4-(4,6-Dimethoxypyrimidin-2-yl)piperazin-1-yl)butyl)-5-fluoro-1H-indole] | 110 | 2.8 | 6.4 | 
Cc1nc(N2CCN(CCCCc3c[nH]c4ccc(F)cc34)CC2)sc1C#N [Example 45, 2-(4-(4-(5-Fluoro-1H-indol-3-yl)butyl)piperazin-1-yl)-4-methylthiazole-5-carbonitrile] | > 1000 | 14 | 8.3 | 
NC(=O)c1ccnc(N2CCN(CCCc3c[nH]c4ccc(F)cc34)CC2)n1 [Example 29, 2-(4-(3-(5-Fluoro-1H-indol-3-yl)propyl)piperazin-1-yl)pyrimidine-4-carboxamide] | 230 | 12 | 1.4 | 
N#Cc1ccc2[nH]cc(CCCN3CCN(c4nccc(C(N)=O)n4)CC3)c2c1 [Example 30, 2-(4-(3-(5-Cyano-1H-indol-3-yl)propyl)piperazin-1-yl)pyrimidine-4-carboxamide] | > 1000 | 14 | 0.75 | 
Cc1nc(N2CCN(CCCCc3c[nH]c4ccc(C#N)cc34)CC2)sc1C#N [Example 47, 2-(4-(4-(5-Cyano-1H-indol-3-yl)butyl)piperazin-1-yl)-4-methylthiazole-5-carbonitrile] | 130 | 5 | 1.5 | 
COc1cc(C)nc(N2CCN(CCCc3c[nH]c4ccc(C#N)cc34)CC2)n1 [Example 22, 3-(3-(4-(4-Methoxy-6-methylpyrimidin-2-yl)piperazin-1-yl)propyl)-1H-indole-5-carbonitrile] |  |  | 2.7 | 1.5
N#Cc1ccc2[nH]cc(CCCN3CCN(c4nccc(C#N)n4)CC3)c2c1 [Example 26, 3-(3-(4-(4-Cyanopyrimidin-2-yl)piperazin-1-yl)propyl)-1H-indole-5-carbonitrile] | 190 | 8 | 2.6 | 
Cc1nc(N2CCN(CCCc3c[nH]c4ccc(F)cc34)CC2)sc1C#N [Example 46, 2-(4-(3-(5-Fluoro-1H-indol-3-yl)propyl)piperazin-1-yl)-4-methylthiazole-5-carbonitrile] | > 1000 | 4.2 | 18 | 
CCOC(=O)c1sc(N2CCN(CCCc3c[nH]c4ccc(F)cc34)CC2)nc1C [Example 38, Ethyl 2-(4-(3-(5-fluoro-1H-indol-3-yl)propyl)piperazin-1-yl)-4-methylthiazole-5-carboxylate] | 270 | 0.27 | 11 | 
Cc1cc(C)nc(N2CCN(CCCc3c[nH]c4ccc(F)cc34)CC2)n1 [Example 19, 3-(3-(4-(4,6-Dimethylpyrimidin-2-yl)piperazin-1-yl)propyl)-5-fluoro-1H-indole] |  | 1.4 | 7.9 | 
Cc1cc(C)nc(N2CCN(CCCc3c[nH]c4ccc(C#N)cc34)CC2)n1 [Example 20, 3-(3-(4-(4,6-Dimethylpyrimidin-2-yl)piperazin-1-yl)propyl)-1H-indole-5-carbonitrile] |  | 1.1 | 2 | 
Cc1nc(N2CCN(CCCCc3c[nH]c4ccc(C#N)cc34)CC2)sc1C(N)=O [Example 43, 2-(4-(4-(5-Cyano-1H-indol-3-yl)butyl)piperazin-1-yl)-4-methylthiazole-5-carboxamide] |  | 12 | 0.85 | 
